In patent publication US7645881B2, “Methods for treating hepatitis C” (PTC Therapeutics, Inc., priority 2004, dated 2010):

Legend:
HCV replicon = assay: microbe, parasite or virus in culture; format: cell-based; details: Hepatitis C virus, 48 h, read-out: Replicon IC50s μM
[1] = system: wild-type poliovirus (WT-PV); format: cell-based; details: HeLa cells, MOI 0.1, compound for one day, decrease of cytopathic effect
[2] = system: cap-dependent translation; assay: Western blot of Fluc protein in pLuc cells (cap-dependent translation); format: cell-based, human; details: 20 hours, data not shown

SMILES | IC50 (HCV replicon) [µM] | WTPV CPE (1.2 μM) [1] | WTPV CPE (11.1 μM) [1] | WTPV CPE (100 μM) [1] | melting point [°C] | cap-dependent protein production (luciferase reporter protein level, Western blot) [2]
CN1CCN(C(=O)c2sc3nc4c(c(C(F)(F)F)c3c2N)CCCCC4)CC1 [Compound 5] | > 2 | 0 | 1 (A “1” in the WT-PV CPE columns indicates that the CPE (cytopathic effect) is decreased by 20-50%.) | 2 (A “2” in the WT-PV CPE columns indicates that the CPE is decreased by 50-75%.) | – | –
Cc1nc2sc(-c3nnc(-c4cccc(Cl)c4)o3)c(N)c2c(C)c1C [Compound 11] | > 2 | – | – | – | 302 to 303 | –
Cc1nc2sc(-c3nnc(-c4ccc(Cl)cc4)o3)c(N)c2c(C)c1C [Compound 12] | > 2 | – | – | – | 331 to 332 | –
Cc1ccccc1-c1nnc(-c2sc3nc(C)c(C)c(C)c3c2N)o1 [Compound 13] | < 0.5 | – | – | – | 261 to 262 | –
Cc1nc2sc(-c3nnc(-c4ccccc4F)o3)c(N)c2c(C)c1C [Compound 14] | < 0.5 | – | – | – | 287 to 288 | –
Cc1nc2sc(-c3nnc(-c4ccccc4Cl)o3)c(N)c2c(C)c1C [Compound 15] | 0.5 to 2 | – | – | – | 284 to 286 | –
Cc1nc2sc(-c3nnc(-c4ccccn4)o3)c(N)c2c(C)c1C [Compound 16] | < 0.5 | – | – | – | 306 to 308 | –
CCCCNc1cc(C)c2c(N)c(C(N)=O)sc2n1 [Compound 17] | 0.5 to 2 | – | – | – | 169 to 170 | –
Cc1nc2sc(-c3nc(COc4ccc(Cl)c(Cl)c4)no3)c(N)c2c(C)c1C [Compound 18] | 0.5 to 2 | – | – | – | 197 to 200 | –
Cc1nc2sc(-c3nc(-c4cccs4)no3)c(N)c2c(C)c1C [Compound 19] | < 0.5 | – | – | – | 281 to 282 | –
COc1ccccc1-c1noc(-c2sc3nc(C)c(C)c(C)c3c2N)n1 [Compound 20] | 0.5 to 2 | – | – | – | 244 to 245 | –
Cc1nc2sc(-c3noc(-c4ccccc4)n3)c(N)c2c(C)c1C [Compound 21] | < 0.5 | – | – | – | 248 to 250 | –
Cc1nc2sc(-c3noc(-c4cccs4)n3)c(N)c2c(C)c1C [Compound 22] | < 0.5 | – | – | – | 260 to 265 | –
COc1ccccc1-c1nnc(-c2sc3nc(C)c(C)c(C)c3c2N)o1 [Compound 23] | 0.5 to 2 | – | – | – | 238 to 240 | –
Cc1nc2sc(-c3nc(-c4ccccc4)no3)c(N)c2c(C)c1C [Compound 24, 4,5,6-trimethyl-2-(3-phenyl-[1,2,4]oxadiazol-5-yl)-thieno[2,3-b]pyridin-3-ylamine] | < 0.5 | – | – | – | 276 to 278 | –
Cc1nc2sc(-c3nc(-c4cccnc4)no3)c(N)c2c(C)c1C [Compound 25] | 0.5 to 2 | – | – | – | 278 to 280 | –
Cc1nc2sc(-c3ncc(-c4ccccc4)o3)c(N)c2c(C)c1C [Compound 26] | 0.5 to 2 | – | – | – | 284 to 285 | –
CCc1c(C)nc2sc(C(C)=O)c(-n3cccc3)c2c1C [Compound 27] | > 2 | – | – | – | 145 to 147 | –
Nc1c(C(=O)Nc2ccc(C(F)(F)F)cc2)sc2nc3c(cc12)CCCCC3 [Compound 29] | > 2 | 0 | 1 (A “1” in the WT-PV CPE columns indicates that the CPE (cytopathic effect) is decreased by 20-50%.) | 2 (A “2” in the WT-PV CPE columns indicates that the CPE is decreased by 50-75%.) | – | –
CCc1c(C)nc2sc(N)c(C#N)c2c1C [Compound 35, 2-amino-5-ethyl-4,6-dimethylthieno[2,3-b]pyridine-3-carbonitrile] | > 2 | 0 | 1 (A “1” in the WT-PV CPE columns indicates that the CPE (cytopathic effect) is decreased by 20-50%.) | 2 (A “2” in the WT-PV CPE columns indicates that the CPE is decreased by 50-75%.) | 223 to 225 | –
CCc1c(C)nc2sc(C(=O)OC(C)(C)C)c(-c3ccc4c(c3)OCO4)c2c1C [Compound 39] | > 2 | – | – | – | 151 to 152 | –
CCc1c(C)nc2sc(C(=O)OC(C)(C)C)c(-c3ccoc3)c2c1C [Compound 40] | > 2 | – | – | – | 111 to 111.5 | –

SMILES | IC50 (HCV replicon) [µM] | WTPV CPE (1.2 μM) [1] | WTPV CPE (11.1 μM) [1] | WTPV CPE (100 μM) [1] | melting point [°C] | cap-dependent protein production (luciferase reporter protein level, Western blot) [2]
CCc1c(C)nc2sc(C(=O)OC(C)(C)C)c(-c3ccc(Cl)cc3)c2c1C [Compound 42] | > 2 | – | – | – | 117 to 118 | –
CCc1c(C)nc2sc(C(=O)OC(C)(C)C)c(-c3cccc(Cl)c3)c2c1C [Compound 43] | > 2 | – | – | – | 152.1 to 152.6 | –
CC(C)(C)OC(=O)c1sc2nc3c(c(-c4cccs4)c2c1N)CCCCC3 [Compound 45, tert-butyl 3-amino-4-thiophen-2-yl-6,7,8,9-tetrahydro-5H-1-thia-10-aza-cyclohepta[f]indene-2-carboxylate] | > 2 | – | – | – | 202.9 to 203.1 | –
CCOC(=O)c1sc2nc3c(c(-c4ccco4)c2c1N)CCC3 [Compound 46] | > 2 | – | – | – | 157.6 to 157.7 | –
CN1CCN(C(=O)c2sc3nc4c(c(-c5cccs5)c3c2N)CCCCC4)CC1 [Compound 47] | > 2 | – | – | – | 115 to 118 | –
CC(C)(C)NC(=O)c1sc2nc3c(c(-c4cccs4)c2c1N)CCCCC3 [Compound 48] | > 2 | – | – | – | 184 to 185 | –
CCc1c(C)nc2sc(NC(=O)C3CCCC3)c(C#N)c2c1C [Compound 49, cyclopentanecarboxylic acid (3-cyano-5-ethyl-4,6-dimethyl-thieno[2,3-b]pyridin-2-yl)amide] | > 2 | – | – | – | 228 to 230 | –
CCc1c(C)nc2sc(NC(=O)C(C)(C)C)c(C#N)c2c1C [Compound 50] | > 2 | 0 | 1 (A “1” in the WT-PV CPE columns indicates that the CPE (cytopathic effect) is decreased by 20-50%.) | 3 (A “3” in the WT-PV CPE columns indicates that the CPE is decreased by 75-100%.) | 164 to 166 | –
CCc1c(C)nc2sc(NC(=O)C(C)C)c(C#N)c2c1C [Compound 53] | > 2 | – | – | – | 189 to 190 | –
CCc1c(C)nc2sc(S(C)(=O)=O)c(C#N)c2c1C [Compound 54] | > 2 | – | – | – | 219 to 220 | –
Cc1nc2sc(C(=O)OC(C)(C)C)c(N)c2c(C)c1-c1ccccc1 [Compound 55] | > 2 | – | – | – | 212 to 213 | –
N#Cc1c(C(=O)Nc2ccccc2)sc2nc3c(c(-c4cccs4)c12)CCCCC3 [Compound 57] | > 2 | – | – | – | 215.3 to 215.7 | –
N#Cc1c(NC(=O)c2cccc(C(F)(F)F)c2)sc2nc3c(c(-c4cccs4)c12)CCCCC3 [Compound 58, N-(3-cyano-4-thiophen-2-yl-6,7,8,9-tetrahydro-5H-1-thia-10-aza-cyclohepta[f]inden-2-yl)-3-trifluoromethyl-benzamide] | > 2 | – | – | – | 226.9 to 227.1 | –
N#Cc1c(Br)sc2nc3c(c(-c4cccs4)c12)CCCCC3 [Compound 60] | > 2 | – | – | – | 196.4 to 196.7 | –
N#Cc1cccc(-c2sc3nc4c(c(-c5cccs5)c3c2C#N)CCCCC4)c1 [Compound 61] | > 2 | – | – | – | 159 to 162 | –
N#Cc1c(-c2ccc3c(c2)OCO3)sc2nc3c(c(-c4cccs4)c12)CCCCC3 [Compound 62] | > 2 | – | – | – | 210 to 211 | –
COc1ccc(-c2sc3nc4c(c(-c5cccs5)c3c2C#N)CCCCC4)cc1 [Compound 63, 2-(4-methoxyphenyl)-4-thiophen-2-yl-6,7,8,9-tetrahydro-5H-1-thia-10-aza-cyclohepta[f]indene-3-carbonitrile] | > 2 | – | – | – | 179.2 to 179.6 | –
CCc1c(C)nc2sc(C(=O)SC(C)(C)C)cc2c1C [Compound 65] | 0.5 to 2 | – | – | – | 109.6 to 110.2 | –
COCCN1CCN(CCOc2c(C)nc3sc(C(=O)OC(C)(C)C)c(N)c3c2C)CC1 [Compound 66] | > 2 | – | – | – | 79 to 81 | –
Cc1nc2sc(C(=O)OC(C)(C)C)c(N)c2c(C)c1OCCN1CCOCC1 [Compound 67, t-butyl 3-amino-4,6-dimethyl-5-(2-morpholin-4-yl-ethoxy)-thieno[2,3-b]pyridine-2-carboxylate] | > 2 | – | – | – | 102 to 104 | –
Cc1nc2sc(C(=O)OC(C)(C)C)c(N)c2c(C)c1OCCN1CCN(C)CC1 [Compound 71] | > 2 | – | – | – | 155.4 to 155.5 | –
COc1ccc(C[C@H](N)C(=O)N[C@H]2[C@@H](O)[C@H](n3cnc4c(N(C)C)ncnc43)O[C@@H]2CO)cc1 [puromycin] | – | – | – | – | – | inhibited
